Reference: patent publication US20260297060A1, “COMPOUNDS FOR THE DEGRADATION OF MUTANT BRAF” (C4 THERAPEUTICS, INC., priority 2023, published 2026)
Read-outs that look alike come from different tables or passages of the source.

Tests used:
BRAF V600E = target: T1, BRAF V600E (Homo sapiens, UniProt P15056+Q96SW2, V600E); assay: BRAF V600E HiBiT Degradation Assay; assay type: cell-based
T1 construct: knock-in of the HiBiT tag to the endogenous BRAF V600E locus; host or cells: A375.10 (A375 clonal line, CRISPR HiBiT knock-in at the endogenous BRAF V600E locus)
Outline: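 Endogenous HiBiT knock-in on BRAF V600E in A375 cells (clone A375.10); 11-point half-log series, top 10 μM, 2, 6 or 24 h at 37° C. Lytic HiBiT luminescence, background-subtracted, normalized to DMSO; 4-parameter fit gives DC50, Emax (residual protein) and IP (inflection point).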

A375-NRAS^Q61K cells = assay: CTGlo Cell Viability Assay, A375-NRAS^Q61K (A375.11) cells, 96 hours; assay type: cell-based, human; conditions: A375.11 (A375-NRAS^Q61K) cells; for CTGlo A375.11 96 hours Emax / Emax: lowest % viability achieved; for Emax: Homo sapiens, 96 h
Outline: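 Viability as CellTiter-Glo ATP luminescence after 96 h compound exposure at 37 °C; A375.11 (BRAF V600E/NRAS Q61K) cells at 250/well, top final concentration 10 μM in half-log steps. Signal was background-corrected and set relative to DMSO controls. A 4-parameter logistic fit gave GI50 (50% crossing) and Emax.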

[1] = A375.10 cells, BRAF V600E, 2 hours, inflection point, read-out: HiBiT-Degradation A375.10 BRAF 2 hours IP
[2] = A375.10 cells, BRAF V600E, 2 hours, read-out: HiBiT-Degradation A375.10 BRAF 2 hours DC50
[3] = A375.10 cells, BRAF V600E, 2 hours, residual protein remaining
[4] = A375.10 cells, BRAF V600E, 2 hours, residual protein remaining, read-out: HiBiT-Degradation A375.10 BRAF 2 hours Emax
[5] = A375.10 cells, BRAF V600E, 6 hours, inflection point, read-out: HiBiT-Degradation A375.10 BRAF 6 hours IP
[6] = A375.10 cells, BRAF V600E, 6 hours, read-out: HiBiT-Degradation A375.10 BRAF 6 hours DC50
[7] = A375.10 cells, HiBiT, BRAF V600E, 24 hours, read-out: HiBiT-Degradation A375.10 BRAF 24 hours DC50
[8] = A375.10 cells, HiBiT, BRAF V600E, 24 hours, read-out: HiBiT-Degradation A375.10 BRAF 24 hours IP
[9] = A375.10 cells, BRAF V600E, 6 hours, residual protein remaining
[10] = A375.10 cells, HiBiT, BRAF V600E, 24 hours

T1 sequence (P15056 whole entry V600E): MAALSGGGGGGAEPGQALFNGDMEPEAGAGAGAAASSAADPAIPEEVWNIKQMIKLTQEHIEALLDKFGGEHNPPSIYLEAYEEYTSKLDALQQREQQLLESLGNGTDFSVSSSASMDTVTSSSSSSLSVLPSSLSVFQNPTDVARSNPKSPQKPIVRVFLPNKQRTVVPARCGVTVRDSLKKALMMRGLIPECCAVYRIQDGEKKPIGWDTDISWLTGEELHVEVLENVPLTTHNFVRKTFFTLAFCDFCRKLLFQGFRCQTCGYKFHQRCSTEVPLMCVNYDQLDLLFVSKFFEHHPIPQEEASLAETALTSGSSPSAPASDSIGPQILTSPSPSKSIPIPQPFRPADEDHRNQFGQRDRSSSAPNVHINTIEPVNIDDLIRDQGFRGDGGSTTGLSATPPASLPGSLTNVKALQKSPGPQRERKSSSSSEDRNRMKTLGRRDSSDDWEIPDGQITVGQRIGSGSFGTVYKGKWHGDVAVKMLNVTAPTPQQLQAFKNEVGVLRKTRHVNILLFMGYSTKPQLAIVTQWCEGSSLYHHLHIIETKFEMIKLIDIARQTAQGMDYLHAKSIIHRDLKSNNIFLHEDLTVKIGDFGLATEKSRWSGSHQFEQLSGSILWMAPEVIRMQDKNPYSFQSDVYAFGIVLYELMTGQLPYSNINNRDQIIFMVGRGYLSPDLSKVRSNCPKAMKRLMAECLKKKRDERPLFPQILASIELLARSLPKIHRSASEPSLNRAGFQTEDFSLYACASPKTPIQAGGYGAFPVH
T1 sequence (Q96SW2 whole entry): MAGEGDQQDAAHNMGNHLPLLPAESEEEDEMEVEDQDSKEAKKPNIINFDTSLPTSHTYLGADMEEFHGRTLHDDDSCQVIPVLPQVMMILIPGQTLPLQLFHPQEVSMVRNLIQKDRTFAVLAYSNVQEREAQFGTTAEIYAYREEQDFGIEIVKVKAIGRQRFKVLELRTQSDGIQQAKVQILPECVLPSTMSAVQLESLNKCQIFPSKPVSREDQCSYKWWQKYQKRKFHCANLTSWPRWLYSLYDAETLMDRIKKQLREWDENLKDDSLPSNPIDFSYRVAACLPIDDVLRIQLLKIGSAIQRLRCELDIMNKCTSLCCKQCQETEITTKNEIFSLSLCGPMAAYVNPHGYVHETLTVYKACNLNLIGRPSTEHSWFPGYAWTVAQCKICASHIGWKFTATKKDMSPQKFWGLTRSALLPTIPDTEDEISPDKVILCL
T1 sequence (Q16531 whole entry partner): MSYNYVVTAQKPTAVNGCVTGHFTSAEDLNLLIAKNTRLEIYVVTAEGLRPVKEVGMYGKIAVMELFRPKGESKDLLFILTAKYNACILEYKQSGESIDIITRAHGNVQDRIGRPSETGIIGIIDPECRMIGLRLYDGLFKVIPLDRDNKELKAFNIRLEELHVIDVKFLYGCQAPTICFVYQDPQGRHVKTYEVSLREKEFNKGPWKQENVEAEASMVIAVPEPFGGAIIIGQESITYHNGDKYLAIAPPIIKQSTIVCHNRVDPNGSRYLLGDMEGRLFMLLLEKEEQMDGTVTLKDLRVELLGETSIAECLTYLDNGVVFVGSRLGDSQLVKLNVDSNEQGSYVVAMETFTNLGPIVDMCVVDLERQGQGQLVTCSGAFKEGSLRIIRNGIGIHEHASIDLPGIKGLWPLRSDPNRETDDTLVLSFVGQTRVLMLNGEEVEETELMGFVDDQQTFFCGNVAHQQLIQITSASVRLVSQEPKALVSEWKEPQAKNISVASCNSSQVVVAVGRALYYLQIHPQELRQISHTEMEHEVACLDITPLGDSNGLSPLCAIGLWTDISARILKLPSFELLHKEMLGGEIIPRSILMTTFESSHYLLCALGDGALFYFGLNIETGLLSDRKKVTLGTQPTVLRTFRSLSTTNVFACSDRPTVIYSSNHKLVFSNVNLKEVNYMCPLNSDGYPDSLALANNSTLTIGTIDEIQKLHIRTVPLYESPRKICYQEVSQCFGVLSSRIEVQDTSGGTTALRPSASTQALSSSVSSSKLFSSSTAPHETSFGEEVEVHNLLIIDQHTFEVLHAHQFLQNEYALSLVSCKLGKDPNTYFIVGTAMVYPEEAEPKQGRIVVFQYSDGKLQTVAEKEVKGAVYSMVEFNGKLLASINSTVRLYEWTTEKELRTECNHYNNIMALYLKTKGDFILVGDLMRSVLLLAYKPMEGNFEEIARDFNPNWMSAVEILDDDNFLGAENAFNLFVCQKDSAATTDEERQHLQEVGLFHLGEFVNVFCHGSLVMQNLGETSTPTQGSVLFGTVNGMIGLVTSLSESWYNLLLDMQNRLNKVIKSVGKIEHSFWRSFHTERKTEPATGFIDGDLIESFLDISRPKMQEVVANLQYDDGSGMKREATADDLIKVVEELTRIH

Row | DC50 (BRAF V600E; [1]) | DC50 (BRAF V600E; [2]) | HiBiT-Degradation A375.10 BRAF 2 hours Emax (BRAF V600E; [3]) | GI50 (A375-NRAS^Q61K cells) | Emax (BRAF V600E; [4]) | DC50 (BRAF V600E; [5]) | DC50 (BRAF V600E; [6]) | Emax (BRAF V600E; A375.10 cells, BRAF V600E, 6 hours, residual protein remaining, read-out: HiBiT-Degradation A375.10 BRAF 6 hours Emax) | DC50 (BRAF V600E; [7]) | Emax (BRAF V600E; A375.10 cells, HiBiT, BRAF V600E, 24 hours, read-out: HiBiT-Degradation A375.10 BRAF 24 hours Emax) | DC50 (BRAF V600E; [8]) | HiBiT-Degradation A375.10 BRAF 6 hours Emax (BRAF V600E; [9]) | HiBiT-Degradation A375.10 BRAF 24 hours Emax (BRAF V600E; [10]) | HiBiT-Degradation A375.10 BRAF 2 hours Emax (BRAF V600E) | Structure (SMILES) | CTGlo A375.11 96 hours Emax (A375-NRAS^Q61K cells) | Emax (A375-NRAS^Q61K cells)
1 | < 1 µM | < 1 µM |  | > 10 µM | < 50% |  |  |  |  |  |  |  |  |  | CCN(C)S(=O)(=O)Nc1ccc(F)c(Nc2ccc3ncn([C@@H]4COC5(CCN(C6CCC(c7cc8c(cc7F)c(N7CCC(=O)NC7=O)nn8C)CC6)CC5)C4)c(=O)c3c2F)c1C#N (single isomer, unassigned) [Compound 68] |  | < 50%
2 | < 1 µM | 1 to 10 µM | ** (<90% and >50%) | 1 to 10 µM |  | < 1 µM | < 1 µM |  | < 1 µM |  | < 1 µM | *** (<=50%) | *** (<=50%) |  | CN(CCO)S(=O)(=O)Nc1ccc(F)c(Oc2ccc3ncn(C4CC5(CCN(C6CCC(c7cc8c(cc7F)c(N7CCC(=O)NC7=O)nn8C)CC6)CC5)C4)c(=O)c3c2)c1C#N (single isomer, unassigned) [Compound 82, 6-[2-cyano-6-fluoro-3-[[2-hydroxyethyl(methyl)sulfamoyl]amino]phenoxy]-3-[7-[4-[3-(2,4-dioxohexahydropyrimidin-1-yl)-5-fluoro-1-methyl-indazol-6-yl]cyclohexyl]-7-azaspiro[3.5]nonan-2-yl]-4-oxo-quinazoline] | ** (<90% and >50%) | 
3 | < 1 µM | < 1 µM |  | < 1 µM |  | < 1 µM | < 1 µM |  | < 1 µM |  | < 1 µM | *** (<=50%) | *** (<=50%) | *** (<=50%) | Cn1nc(N2CCC(=O)NC2=O)c2cc(F)c(C3CCC(N4CCC5(CC4)CC(n4cnc6ccc(Oc7c(F)ccc(NS(=O)(=O)C8CCCC8)c7C#N)cc6c4=O)C5)CC3)cc21 (single isomer, unassigned) [Compound 94, N-[2-cyano-3-[3-[7-[4-[3-(2,4-dioxohexahydropyrimidin-1-yl)-5-fluoro-1-methyl-indazol-6-yl]cyclohexyl]-7-azaspiro[3.5]nonan-2-yl]-4-oxo-quinazolin-6-yl]oxy-4-fluoro-phenyl]cyclopentanesulfonamide] | *** (<=50%) | 
4 | < 1 µM | < 1 µM | *** (<=50%) | < 1 µM |  | < 1 µM | < 1 µM |  | < 1 µM |  | < 1 µM | *** (<=50%) | *** (<=50%) |  | CO[C@@H]1CCN(S(=O)(=O)Nc2ccc(F)c(Oc3ccc4ncn(C5CC6(CCN(C7CCC(c8cc9c(cc8F)c(N8CCC(=O)NC8=O)nn9C)CC7)CC6)C5)c(=O)c4c3)c2C#N)C1 (single isomer, unassigned) [Compound 102] | *** (<=50%) | 
5 | < 1 µM | < 1 µM | *** (<=50%) | 1 to 10 µM |  | < 1 µM | < 1 µM |  | < 1 µM |  | < 1 µM | *** (<=50%) | *** (<=50%) |  | CO[C@H]1CCN(S(=O)(=O)Nc2ccc(F)c(Oc3ccc4ncn(C5CC6(CCN(C7CCC(c8cc9c(cc8F)c(N8CCC(=O)NC8=O)nn9C)CC7)CC6)C5)c(=O)c4c3)c2C#N)C1 (single isomer, unassigned) [Compound 104] | ** (<90% and >50%) | 
6 | < 1 µM | 1 to 10 µM |  | > 10 µM | 50 to 90% |  |  |  |  |  |  |  |  |  | CCN(C)S(=O)(=O)Nc1ccc(F)c(Oc2ccc3ncc(OCC4CCN(C5CCC(c6ccc(NC7CCC(=O)NC7=O)cc6F)CC5)CC4)nc3c2)c1C#N (single isomer, unassigned) [Compound 116, 7-[2-cyano-3-[[ethyl(methyl)sulfamoyl]amino]-6-fluoro-phenoxy]-2-[[1-[4-[4-[(2,6-dioxo-3-piperidyl)amino]-2-fluoro-phenyl]cyclohexyl]-4-piperidyl]methoxy]quinoxaline] |  | 50 to 90%

The remaining lines, values behind:

Row | Structure (SMILES) | DC50 (BRAF V600E; [1]) | DC50 (BRAF V600E; [2]) | HiBiT-Degradation A375.10 BRAF 2 hours Emax (BRAF V600E; [3]) | GI50 (A375-NRAS^Q61K cells) | Emax (BRAF V600E; [4]) | DC50 (BRAF V600E; [5]) | DC50 (BRAF V600E; [6]) | Emax (BRAF V600E; A375.10 cells, BRAF V600E, 6 hours, residual protein remaining, read-out: HiBiT-Degradation A375.10 BRAF 6 hours Emax) | DC50 (BRAF V600E; [7]) | Emax (BRAF V600E; A375.10 cells, HiBiT, BRAF V600E, 24 hours, read-out: HiBiT-Degradation A375.10 BRAF 24 hours Emax) | DC50 (BRAF V600E; [8]) | HiBiT-Degradation A375.10 BRAF 6 hours Emax (BRAF V600E; [9]) | HiBiT-Degradation A375.10 BRAF 24 hours Emax (BRAF V600E; [10]) | HiBiT-Degradation A375.10 BRAF 2 hours Emax (BRAF V600E) | CTGlo A375.11 96 hours Emax (A375-NRAS^Q61K cells) | Emax (A375-NRAS^Q61K cells)
7 | CCN(C)S(=O)(=O)Nc1ccc(F)c(Nc2ccc3ncn([C@H]4COC5(CCN(C6CCC(c7cc8c(cc7F)c(N7CCC(=O)NC7=O)nn8C)CC6)CC5)C4)c(=O)c3c2)c1C#N (single isomer, unassigned) [Compound 65] | < 1 µM | 1 to 10 µM | ** (<90% and >50%) | > 10 µM |  |  |  |  |  |  |  |  |  |  | ** (<90% and >50%) | 
8 | CCN(C)S(=O)(=O)Nc1ccc(F)c(Nc2ccc3ncn([C@@H]4COC5(CCN(C6CCC(c7cc8c(cc7F)c(N7CCC(=O)NC7=O)nn8C)CC6)CC5)C4)c(=O)c3c2F)c1C#N (single isomer, unassigned) [Compound 69] | < 1 µM | < 1 µM | *** (<=50%) | < 1 µM |  | < 1 µM | < 1 µM | < 50% | < 1 µM | < 50% | < 1 µM |  |  |  | *** (<=50%) | 
9 | CN(CCO)S(=O)(=O)Nc1ccc(F)c(Oc2ccc3ncn(C4CC5(CCN(C6CCC(c7ccc(NC8CCC(=O)NC8=O)cc7F)CC6)CC5)C4)c(=O)c3c2)c1C#N (single isomer, unassigned) [Compound 80, 6-[2-cyano-6-fluoro-3-[[2-hydroxyethyl(methyl)sulfamoyl]amino]phenoxy]-3-[7-[4-[4-[(2,6-dioxo-3-piperidyl)amino]-2-fluoro-phenyl]cyclohexyl]-7-azaspiro[3.5]nonan-2-yl]-4-oxo-quinazoline] | < 1 µM | > 10 µM | ** (<90% and >50%) | > 10 µM |  |  |  |  |  |  |  |  |  |  | ** (<90% and >50%) | 
10 | CCN(C)S(=O)(=O)Nc1ccc(F)c(Oc2ccc3ncn(C4CC5(CCN(C6CCC(c7cc8c(cc7F)c(N7CCC(=O)NC7=O)nn8C)CC6F)CC5)C4)c(=O)c3c2)c1C#N (single isomer, unassigned) [Compound 84, 6-[2-cyano-3-[[ethyl(methyl)sulfamoyl]amino]-6-fluoro-phenoxy]-3-[7-[4-[3-(2,4-dioxohexahydropyrimidin-1-yl)-5-fluoro-1-methyl-indazol-6-yl]-2-fluoro-cyclohexyl]-7-azaspiro[3.5]nonan-2-yl]-4-oxo-quinazoline] | < 1 µM | < 1 µM |  | 1 to 10 µM |  | < 1 µM | < 1 µM |  | < 1 µM |  | < 1 µM | *** (<=50%) | *** (<=50%) | *** (<=50%) | ** (<90% and >50%) | 
11 | CC(C)S(=O)(=O)Nc1ccc(F)c(Oc2ccc3ncn(C4CC5(CCN(C6CCC(c7cc8c(cc7F)c(N7CCC(=O)NC7=O)nn8C)CC6)CC5)C4)c(=O)c3c2)c1C#N (single isomer, unassigned) [Compound 96, N-[2-cyano-3-[3-[7-[4-[3-(2,4-dioxohexahydropyrimidin-1-yl)-5-fluoro-1-methyl-indazol-6-yl]cyclohexyl]-7-azaspiro[3.5]nonan-2-yl]-4-oxo-quinazolin-6-yl]oxy-4-fluoro-phenyl]propane-2-sulfonamide] | < 1 µM | < 1 µM | *** (<=50%) | < 1 µM |  | < 1 µM | < 1 µM |  | < 1 µM |  | < 1 µM | *** (<=50%) | *** (<=50%) |  |  | 
12 | CCN(C)S(=O)(=O)Nc1ccc(F)c(Oc2ccc3ncc(OCC4CCN(C5CCC(c6ccc(NC7CCC(=O)NC7=O)cc6F)CC5)CC4)nc3c2)c1C#N (single isomer, unassigned) [Compound 117, 7-[2-cyano-3-[[ethyl(methyl)sulfamoyl]amino]-6-fluoro-phenoxy]-2-[[1-[4-[4-[(2,6-dioxo-3-piperidyl)amino]-2-fluoro-phenyl]cyclohexyl]-4-piperidyl]methoxy]quinoxaline] | < 1 µM | < 1 µM | *** (<=50%) | < 1 µM |  |  |  |  |  |  |  |  |  |  | ** (<90% and >50%) | 
